What was measured:
[1] = Mouse pharmacokinetic study, plasma exposure after IP dosing; type: in vivo, BALB/c mice; settings: IP 10 mg/kg; for Cmax / Plasma AUC0–24 h: female BALB/c mice
Experimental: Pharmacokinetic animal studies were conducted using established procedures in accordance with the Australian Code of Practice for the Care and Use of Animals for Scientific Purposes, and the study protocols were reviewed and approved by the Monash Institute of Pharmaceutical Sciences Animal Ethics Committee. The systemic exposure of GW6471 was studied in non-fasted female BALB/c mice (5 - 8 weeks) weighing 15.2–22.6 g. Mice had access to food and water ad libitum throughout the pre- and post-dose sampling period. GW6471 (10 mg/kg) was dosed to all mice via a single intraperitoneal (IP) injection (5 mL/kg). For the ABT pre-treated group, ABT was pre-dosed to animals at 50 mg/kg via IP injection (5 mL/kg) 2 h prior to administration of GW6471. Following IP administration of GW6471, blood samples were collected up to 24 h at indicated time points (n = 3 mice per time point) with a maximum of three samples from each mouse. Blood samples were collected via submandibular bleed (approximately 120 μL) into polypropylene Eppendorf tubes containing heparin as anticoagulant and stabilisation cocktail (containing the protease inhibitor cocktail Complete® and KF) to minimise the potential for ex vivo compound degradation in blood/plasma samples. Once collected, blood samples were centrifuged immediately, supernatant plasma was removed, and stored at−80°C until analysis by liquid chromatography-mass spectrometry (LC–MS). The plasma concentration versus time profile was defined by the average plasma concentration at each sample time, and PK parameters were calculated using non-compartmental methods (PKSolver Version 2.0).
Compound quantification was performed using a Xevo G2 QTOF (in vitro metabolic stability) using positive electrospray ionisation under MS^E mode or a Waters Xevo TQD (mouse exposure) mass spectrometer using positive electrospray ionisation multiple-reaction monitoring mode. Compounds were eluted using an acetonitrile-water/0.05% formic acid gradient at a flow rate of 0.4 mL/min operating over a 4 min cycle on a Waters Acquity UPLC using a Supelco Ascentis Express RP C8 column (50 × 2.1 mm, 2.7 μm). Extraction was performed by precipitation using acetonitrile (1:1 volume ratio for microsomes and 2:1 volume ratio for plasma samples) followed by centrifugation. Compound concentrations were quantified against calibration standards prepared in an appropriate matrix to match the test samples (e.g. plasma or microsomes).
ABT Formulation: On the evening prior to dosing, ABT was dissolved in a 0.9% (w/v) saline using vortexing and sonicating, resulting in a colourless solution. The nominal concentration of ABT in the formulation was 10 mg/mL. GW6471 Formulation: The final drug contains 40% final volume of PEG400 (Kollisolv PEG E 400, Sigma Aldrich), and 60% final volume of Solutol HS-15 (Kolliphor HS-15, Sigma Aldrich). Solutol is previously mixed in a saline solution (12.5% concentration). On the day of dosing, the solid GW6471 was first dissolved in PEG400by thoroughly vortexing and sonicating for 5 min. Then, the saline solution containing Solutol HS-15 12.5% was added. Again, the formulation was then thoroughly vortexed and sonicated to produce a hazy pale yellow suspension with an apparent pH of 3.4. The nominal concentration of GW6471 in the formulation was 2 mg/mL. […] The dose administered to each mouse was calculated on the basis of the mouse body weight (determined prior to dosing).

[2] = Protein binding by rapid equilibrium dialysis, reporter assay media; type: in vitro ADME; settings: DMEM/F-12 with 5% dextran-coated charcoal-stripped FCS, mean ± SD, n=3
Experimental: Protein binding was determined via rapid equilibrium dialysis (RED) with incorporation of a pre-saturation step ([Charman et al., 2020]). The pre-incubation process involved RED system being exposed to fresh aqueous solutions of GW6471 (400 nM) for three periods (including one overnight). For the protein binding determination, GW6471 was spiked into the diluted mouse plasma (10% (v/v); in PBS) or DMEM/F-12 media containing 5% dextran-coated charcoal-stripped FCS (at 2000 nM) and dialysed against protein-free PBS (for plasma) or base media (DMEM/F-12) containing GW6471 at 40 nM for 24 h at 37°C under ambient atmosphere on a plate shaker. Concentrations of GW6471 in dialysate and donor samples collected at the end of the dialysis period were determined via LC–MS.
Compound binding was assessed on the basis of the measured concentrations in dialysate and donor samples at the end of the dialysis period.
Based on the post-dialysis measured concentrations in donor (Ctotal_post_dialysis) and dialysate (Cunbound) for each RED unit, the unbound fraction of compound in assay matrix (fu_diluted) was calculated according to Equation 1 below:(Equation 1) fu=Cunbound/Ctotal_post−dialysis
For media, the value for fu calculated according to Equation 1 above was used without further correction. […]

renal cell carcinoma = system: renal cell carcinoma; design: method as in Abu Aboud et al., 2015; settings: 20 mg/kg; ref Abu Aboud et al., 2015; cited from earlier work
[3] = system: VGE62 human mesothelioma cell line; assay: Matrigel invasion scratch assay; type: cell-based; settings: VGE62, 0.5, 1, 10 μM, concentration-dependent, p <0.0001
Experimental: Cells were harvested and seeded in Incucyte®ImageLock 96-well plates (Essen BioScience) at a density of 10 x 10^4 cells/mL overnight. A scratch wound was performed on the confluent cells with the 96-pin IncuCyte WoundMaker Tool (Essen BioScience). For migration assays, cells were washed with PBS once before adding 100 μL media with GW6471 at indicated concentrations. For matrigel invasion assays, cells were washed with PBS once before adding 50 μL of matrigel basement membrane matrix (FAL356231; Corning, NY, USA) at 8 mg/mL; lastly 100 μL media with GW6471 at indicated concentrations were added on top of the matrigel. Wounded cells were incubated in the IncuCyte ZOOM® at 37°C with 5% CO2. Data were analysed using the Incucyte® Scratch Wound Cell Migration Software Module and calculating the Relative Wound Density (%) (RWD) for both migration and invasion assays.

[4] = ABT 50 mg/kg IP 2 h before (ABT + GW6471)

CCC(=O)NC[C@H](Cc1ccc(OCCc2nc(-c3ccccc3)oc2C)cc1)N/C(C)=C\C(=O)c1ccc(C(F)(F)F)cc1 [GW6471]
Increase of plasma concentration with ABT pre-treatment (based on AUC and Cmax) ([1]; ABT pre-treatment versus none): approximately 3 fold
Cmax [1, 4]: 3600 nM
Plasma AUC0–24 h [1, 4]: 31.4 h∗μM
Cmax ([1]; without ABT): 1180 nM
Plasma AUC0–24 h ([1]; without ABT): 9.81 h∗μM
Fraction unbound (fu) [2]: 0.0037 ± 0.0006
Tumor reduction in vivo (renal cell carcinoma): significant tumor reduction
Invasion into matrigel (relative wound density) [3]: significantly inhibited invasion

Source: article PMC8692993, “PPARα and PPARγ activation is associated with pleural mesothelioma invasion but therapeutic inhibition is ineffective” (iScience, 2021)
